Patent US20120040976A1, “SMALL MOLECULE IMMUNOMODULATORS FOR ALZHEIMER'S DISEASE” (HUMAN BIOMOLECULAR RESEARCH INSTITUTE, priority 2008, published 2012)
In brackets after ≈: the same amount, converted by molar mass.

How the values were obtained:
Average permeability = assay type: in vitro ADME; settings: not told
[1] = Metabolic stability in human liver microsomes; assay type: in vitro ADME; settings: human, read-out: Half life, t1/2 HLM
[2] = Metabolic stability in human S9 fraction; assay type: in vitro ADME; settings: read-out: Half life, t1/2 S9
Average solubility = assay type: physicochemical
[3] = system: cortical neurons in hAPP-transfected rat brain slices; assay: Rat brain slice AD model (hAPP-induced neurodegeneration); assay type: cell-based; settings: rat brain slices transfected with EYFP and hAPP, three concentrations, 72 hrs (FIG. 8)
Excerpt: A rodent brain slice model for AD has been developed where the expression of human APP by particle-mediated gene transfer (“biolistics”) leads to typical signs of neuronal dystrophy, and ultimately the degeneration and clearance of the cell body with a few days. Brain slice preparations offer a powerful experimental system because they preserve the three-dimensional tissue architecture and local environment of neurons and glia far better than dissociated cell culture. As such, drug lead candidates that show neuroprotective activity in brain-tissue based disease models have a much increased ability to predict efficacy in vivo and ultimately in the clinic.
Preparation of Brain Slice Explants. Cd Sprague-Dawley Rat Pups are Used at Postnatal day 10. Brains are cut into 250 μm coronal slices on a vibratome in chilled medium baths. Approximately 6 such slices can be cut from each rat brain; each are divided into “hemi-coronal” slices which are placed in individual 6-well transwell inserts. […]
Assessment of cortical neuron health. […] Representative images are captured using a digital camera on a fluorescence microscope. After 3 days, cortical neurons are scored. […] Statistical significance of the neuronal counts in compound-treated slices is evaluated by ANOVA analysis, followed by post hoc Dunnett's analysis at the p≦0.05 confidence level. […]

MGAT3 [4] = assay: MGAT3 transcription ratio, AD patient / control PBMCs (qPCR); assay type: cell-based, human; settings: Aβ stimulation
Protocol: (§1) qPCR reactions of cultured monocyte cDNAs. One μL total cellular cDNA per reaction is used in triplicate reactions for each test gene, and for each culture treatment. SYBR-Green reactions were run on a Continuous Fluorescence real-time thermocycler and analyzed. Cycle threshold (Ct) values are recorded for each replicate reaction, and are then averaged and normalized against mean Ct values from one or more control genes. Fold-expression differences relative to untreated cells are determined using the 2^−ΔΔCt method as previously described. Data from the curcumin concentration range are plotted in order to determine EC50 values (concentrations producing one-half maximal stimulant activity), which are used for comparisons of potency between different compounds. Data are also evaluated for each gene with regard to sensitivity, maximally effective concentration of curcuminoid, response to Aβ, and overall magnitude of fold-expression changes.
(§2) MGAT3 and/or TLR transcription were tested by qPCR in human monocyte cells treated with curcuminoids and compared the results to those treated with vehicle (Table 7). As discussed above, activation or up-regulation of macrophage MGAT3 or TLR's results in many functional outcomes, including the enhancement of […] and removal of Aβ, increased apoptosis, secretion of inflammatory cytokines, and other anti-AD antimicrobial activities. […] Thus, the ratio of MGAT3 or TLR transcription upon Aβ stimulation of human monocytes versus vehicle treatment provides an indicator and sensitive method to test the in vitro efficacy of drug candidates. […] The relative biological activity of the curcumin analogs in AD patient and control cells was ascertained in the in vitro Aβ assay described above (see Example 2).

[5] = Chemical stability (H2O, pH 7.4); assay type: physicochemical
ALS PBMCs = assay: Mutant SOD-1 induced polarization of ALS PBMCs to the Th17 type; assay type: cell-based, human
Excerpt: (§3) More recently, it was shown that PBMCs isolated from ALS patients, and to a lesser extent from control subjects, strongly express COX-2 and other cytokines after stimulation with aggregated wild-type or mutant SOD-1. […] It was also shown that mutant SOD-1 induced polarization of ALS PBMCs to the Th17 type, but the induction was inhibited by 10.

TLR4 = TLR4 gene expression by qPCR in U-937 human monocytic cells treated with curcumins plus Aβ; assay type: cell-based; settings: for Relative gene expression TLR4, increased expression relative to control cells: human monocytic cells (U-937), curcumin plus Aβ
Protocol: (§4) Cell culture conditions for monocytic cell lines. Human and mouse monocyte cell lines are grown in RPMI-1640 medium with 10% fetal bovine serum (FBS), plus glutamine and pen/strep. For treatment with compounds (curcuminoids+/−Aβ), replicate sets of 0.5-1.0 mL cultures containing 1-2×10^6 cells are set up in the wells of 48-well tissue culture plates. Both replicate sets have at least one control well receiving no added curcuminoid to provide baseline expression controls for untreated, and Aβ-only treated cells. Remaining wells receive curcuminoid in a range of 10-fold serial dilutions in DMSO, typically from […] Cultures are incubated for 20-24 hours (“overnight”) at 37° C. in atmosphere with 5% CO2. After one overnight, to one of replicate sets of cultures is added Aβ (1-42) peptide to a final concentration of 5 μg/mL.
(§5) RNA isolation and cDNA synthesis. After the first overnight incubation in the presence of curcuminoid, cells from one replicate set of wells are collected by centifugation. RNAs are extracted from pelleted cells using miniprep column kits following manufacturer's protocol for animal cells. […] of total cellular RNA from each well is quantitated using a Nanodrop spectrophotometer, and first-strand total cDNA is prepared from 0.3-1.0 μg RNA by random-hexamer priming. Following the second 20 hr. incubation in the presence of Aβ, RNA extractions and cDNA synthesis are similarly performed.
(§6) Assay development. Gene-specific mRNA levels are determined using a real-time thermocycler, and by normalizing to expression of one or more control genes. Assays for quantifying mRNA levels are based on gene sequences reported in NCBI Genbank. PCR oligonucleotide primers are selected spanning introns to minimize the opportunity for amplication from any contaminating genomic DNA in the RNA preps. Oligonucleotides are typically tested and used at a concentration of 200 nM in qPCR reactions containing SYBR dye. Control reactions include template from cDNA synthesis reactions either + or − reverse transcriptase (RT), as well as no-template controls (ntc). All reactions are performed in triplicate. Reactions are typically run with 40 cycles of 95° C. (10 sec) and 58° C. (30 sec). Melt curves based on incremental 0.5° C. increases are determined for new assays to test for uniformity of amplified products. Reaction conditions are modified as needed depending on initial test results. ‘Working’ assays are selected based on clear RNA-dependent amplification and absence of product in ‘ntc’ reactions. The following assay primers are used: […]
as §1, with “Data from the curcumin concentration range are plotted in order to determine EC50 values (concentrations producing one-half maximal stimulant activity), which are used for comparisons of potency between different compounds.” left out, “changes. […]” for “changes.”

MGAT3 [6] = assay: MGAT3 gene expression by qPCR in U-937 human monocytic cells treated with curcumins plus Aβ; assay type: cell-based; settings: human monocytic cells (U-937), curcumin plus Aβ
Protocol: as §4, §5
as §6, with “All reactions are performed in triplicate. Reactions are typically run with 40 cycles of 95° C. (10 sec) and 58° C. (30 sec).” left out, “products.” for “products. Reaction conditions are modified as needed depending on initial test results. ‘Working’ assays are selected based on clear RNA-dependent amplification and absence of product in ‘ntc’ reactions. The following assay primers are used:”
qPCR reactions of cultured monocyte cDNAs. […] SYBR-Green reactions were run on a Continuous Fluorescence real-time thermocycler and analyzed. Cycle threshold (Ct) values are recorded for each replicate reaction, and are then averaged and normalized against mean Ct values from one or more control genes. Fold-expression differences relative to untreated cells are determined using the 2^−ΔΔCt method as previously described. […] Data are also evaluated for each gene with regard to sensitivity, maximally effective concentration of curcuminoid, response to Aβ, and overall magnitude of fold-expression changes. […]

TLR3 = TLR3 gene expression by qPCR in U-937 human monocytic cells treated with curcumins plus Aβ; assay type: cell-based; settings: for TLR3 expression response (in words): U-937, plus Aβ (FIG. 3); for Relative gene expression TLR3, increased expression relative to control cells: human monocytic cells (U-937), curcumin plus Aβ
Protocol: as §4, §5, §6, §1
(§7) Data showing in vitro up-regulation of genes associated with Aβ phagocytosis in response to curcumins. Natural curcumins and synthetic analogs were tested in U-937 human monocyte cells in vitro for their ability to modulate expression of the genes MGAT3 and TLRs −2, −3, and −4. […]

COX-2 = assay: Inhibition of SOD1-induced COX-2 expression in ALS PBMCs; assay type: cell-based, human; settings: aggregated wild-type or mutant SOD-1
Excerpt: as §3

VDR = VDR gene expression by qPCR in U-937 human monocytic cells treated with curcumins plus Aβ; assay type: cell-based; settings: for Relative gene expression VDR, increased expression relative to control cells: human monocytic cells (U-937), curcumin plus Aβ
Protocol: as §4, §5, §6, §1, §7

TLR2 = TLR2 gene expression by qPCR in U-937 human monocytic cells treated with curcumins plus Aβ; assay type: cell-based; settings: for Relative gene expression TLR2, increased expression relative to control cells: human monocytic cells (U-937), curcumin plus Aβ
Protocol: as §4, §5, §6
qPCR reactions of cultured monocyte cDNAs. One μL total cellular cDNA per reaction is used in triplicate reactions for each test gene, and for each culture treatment. SYBR-Green reactions were run on a Continuous Fluorescence real-time thermocycler and analyzed. Cycle threshold (Ct) values are recorded for each replicate reaction, and are then averaged and normalized against mean Ct values from one or more control genes. Fold-expression differences relative to untreated cells are determined using the 2^−ΔΔCt method as previously described. […] Data are also evaluated for each gene with regard to sensitivity, maximally effective concentration of curcuminoid, response to Aβ, and overall magnitude of fold-expression changes. […]

TLR 4 = TLR 4 transcription ratio, AD patient / control PBMCs (qPCR); assay type: cell-based, human; settings: Aβ stimulation
Protocol: as §1, §2

TLR 2 = TLR 2 transcription ratio, AD patient / control PBMCs (qPCR); assay type: cell-based, human; settings: Aβ stimulation
Protocol: as §1, §2

TLR 3 = TLR 3 transcription ratio, AD patient / control PBMCs (qPCR); assay type: cell-based, human; settings: Aβ stimulation
Protocol: as §1, §2

| SMILES | IC50 (Anti-oxidant activity) [µM] | Papp (Average permeability) [×10⁻⁶ cm/s] | half-life [1] [min] | half-life [2] [min] | solubility (Average solubility) [µg/mL] | Relative ratio of MGAT3 transcription in AD patient / control PBMC's (MGAT3 [4]) | Relative gene expression TLR4, increased expression relative to control cells (TLR4) | Relative gene expression MGAT3, increased expression relative to control cells (MGAT3 [6]) | TLR3 expression response (in words) (TLR3) | Relative gene expression TLR3, increased expression relative to control cells (TLR3) | Relative gene expression VDR, increased expression relative to control cells (VDR) | Relative gene expression TLR2, increased expression relative to control cells (TLR2) | also measured |
| --- | --- | --- | --- | --- | --- | --- | --- | --- | --- | --- | --- | --- | --- |
| COc1cc(/C=C/C(=O)/C=C(O)/C=C/c2ccc(O)c(OC)c2)ccc1O [Compound 2, 1,7-Bis(4-hydroxy-3-methoxyphenyl)-5-hydroxy-hepta-1,4,6-trien-3-one, reference compound] | 31.7 | 844 ± 24 | 40.8 | 10.1 | 9.5 (≈ 25.8 µM) | + ((+) indicates a ratio of 1.0-1.5) |  |  |  |  |  |  | Neuroprotective effect against hAPP-induced neurodegeneration [3]: prevent widespread neurodegeneration in a dose-dependent manner; half-life ([5]; water (aqueous solution), pH 7.4, read-out: Chemical stability t1/2 pH 7.4 (converted)): 15.9 min; half-life ([5]; water, H2O, read-out: Chemical stability t1/2 H2O (converted)): 73.5 min |
| CN(C)c1ccc(/C=C/C(O)=C2\CCC/C(=C\c3ccc(N(C)C)cc3)C2=O)cc1 [Compound 10] | 155 |  | 127 | 311 |  |  | + ((+) <20-fold) | +++ ((+++) >40-fold) | considerably higher expression | +++ ((+++) >40-fold) | +++++ ((+++++) >1000-fold) | ++ ((++) >20-fold) | Induction of Th17 polarization by mutant SOD-1 (ALS PBMCs): inhibited; Concentration giving maximal TLR4 response (TLR4; U-937, plus Aβ (FIG. 4)): approximately 10 nM; Induction of COX-2 by SOD-1 after pretreatment (COX-2): blocked; VDR expression increase (VDR; human monocytes, plus Aβ (FIG. 5)): 10^3 fold; Chemical stability H2O (stable/unstable) ([5]; H2O): stable (stability half-lives greater than 5 hours); Stability compared with BDC (in words) ([5]; chemical and metabolic stability): markedly greater stability than BDC; Chemical stability pH 7.4 (stable/unstable) ([5]; pH 7.4): stable (stability half-lives greater than 5 hours); Concentration giving maximal TLR2 expression (TLR2; U-937, in the presence of Aβ (FIG. 2)): 1 nM |
| CC(C)C(N)C(=O)Oc1ccc(/C=C/C(=O)/C=C(O)/C=C/c2ccc(OC(=O)C(N)C(C)C)cc2)cc1 (stereo not drawn) [Compound 33, 4,4′-(3,5-Dioxohepta-1,6-diene-1,7-diyl)bis(4,1-phenylene) bis(2-amino-3-methylbutanoate)] | > 250 | 316 | 23.8 | 5.9 | 18.2 (≈ 35.9 µM) | + ((+) indicates a ratio of 1.0-1.5) | + ((+) <20-fold) | +++ ((+++) >40-fold) | limited response | + ((+) <20-fold) | ++ ((++) >20-fold) | + ((+) <20-fold) | Relative ratio of TLR 4 transcription in AD patient / control PBMC's (TLR 4): TLR 4 + ((+) indicates a ratio of 1.0-1.5); Relative ratio of TLR 2 transcription in AD patient / control PBMC's (TLR 2): TLR 2 ++ ((++) indicates a ratio of 1.5-2.0); Relative ratio of TLR 3 transcription in AD patient / control PBMC's (TLR 3): TLR 3 ++ ((++) indicates a ratio of 1.5-2.0); Solubility compared with parent compounds (in words) (Average solubility): significantly improved solubility; VDR normalized expression response (in words) (VDR; human monocytes, plus Aβ): somewhat higher expression; half-life ([5]; water (aqueous solution), pH 7.4, value given in h, read-out: Chemical stability t1/2 pH 7.4 (converted)): 60 min; half-life ([5]; water, H2O, value given in h, read-out: Chemical stability t1/2 H2O (converted)): 1130 min |
